Format in all cases: cell-based
For one experiment, the target named is T1, FGFR2 (Homo sapiens, UniProt P21802, K310R/N549K).
T1 construct: in FGFR aberrations of AN3CA (FGFR2/k310R, N549K); host or cells: AN3CA
Nature of the experiment: pERK potency assay (In Cell ELISA), AN3CA cells. The following applies: for IC50: pERK, AN3CA (FGFR2/k310R, N549K) cells, 3 hours; for FGFR1 IC50/FGFR2 IC50 / FGFR3 IC50/FGFR2 IC50: selectivity ratio, pERK potency; for FGFR1 IC50/FGFR2 IC50: FGFR2 relative to FGFR1; for FGFR3 IC50/FGFR2 IC50: FGFR2 relative to FGFR3. The source says:
(§1) The purpose of this assay is to measure the ability of test compounds to inhibit FGFR mediated downstream signaling cascades, i.e., ERK phosphorylation in cells with FGFR aberrations. FGFR aberrations become constitutively active and thus induces cascades of cellular signaling events that result in increased phosphorylation of ERK at Threonine 202 and Tyrosine 204 (pERK). The procedure called In Cell ELISA described below measures the level of cellular pERK in response to FGFR specific inhibitor compounds in FGFR aberrations of AN3CA (FGFR2/k310R, N549K), DMS114 (FGFR1 amplification), RT112 (FGFR3 overexpression/FGFR3-TACC3 fusion) and Hep3B (FGF19 amplification) cells. AN3CA, DMS114 and Hep3B cells are from ATCC. RT112 cells are from Sigma. DMS114 cells are grown and maintained using RPMI-1640 medium supplemented with 10% heat-inactivated fetal bovine serum. AN3CA, Hep3B and RT112 cells are grown and maintained using DMEM supplemented with 10% heat-inactivated fetal bovine serum. On the day before test compound addition, cells are plated in poly-D-lysine coated 96-well cell culture plates (Corning® BioCoat® Cat #356640) at 40000 cells/well/100 μL and grown overnight in a 37° C., 5% CO2 incubator. Test compounds are prepared with 4-fold serial dilutions in DMSO, with a top concentration of 10 μM. On the day of the assay, 50 μL of test compound diluted in media was added to each well of cell culture plate with the final concentration of compounds spanning from 0.000038 μM to 10 μM. After compound addition, cells are incubated for 3 hours at 37° C., 5% CO2 and then the culture medium is removed. Cells are fixed with 4% formaldehyde in phosphate-buffered saline (PBS) and incubated at RT for 20 min. The plate is then washed three times with PBST (PBS with 0.05% tween-20), followed by the incubation with 100 μL of pre-cooled methanol at −20° C. for 20 min. After incubation, methanol is removed, and the plate is washed once with PBST. Cells are permeabilized with 100 µL/well of 0.1% Triton X-100 in PBS at RT for 20 min and then quenched with quenching buffer (PBST containing 1% H2O2 and 0.1% sodium azide) for 20 min at RT with gentle shaking. After washing once with PBST, blocking buffer (250 ul/well, Pierce™ Protein-Free-PBS Blocking Buffer, Cat #37572) was then added to the cells for 1-h incubation at RT, followed by anti-pERK antibody (cell signaling, 1:1000 dilution in 5% BSA in PBST) incubation overnight at 4° C. and secondary antibody-HRP (Jackson immunoresearch, 1:3000 dilution in 5% BSA in PBST) incubation at RT for 1 h. PBST wash is carried out after each step three times. Before the addition of the substrate (Advansta ELISABright), the plate is washed with PBS twice to remove detergent residues. Cellular pERK level is determined using the microplate reader (Biotek Synergy H1) to detect the chemiluminescence signal. IC50 is determined by fitting a 4-parameter sigmoidal concentration-response model. FGFR wild type cells (H1975, PC-9 and AGS) are used to serve as negative control (FGFR selectivity) with the same assay procedures described above.

Another experiment addresses T2, FGFR1 (Homo sapiens, UniProt P11362).
T2 construct: DMS114 (FGFR1 amplification); host or cells: DMS114
Nature of the experiment: pERK potency assay (In Cell ELISA), DMS114 cells. The following applies: DMS114 (FGFR1 amplification) cells, 3 hours.
Source text: as §1
For orientation: In an ELISA, binding on a coated surface is turned into a signal by an enzyme label.

For the next experiment, the target named is T3, FGFR3 (Homo sapiens, UniProt P22607).
T3 construct: RT112 (FGFR3 overexpression/FGFR3-TACC3 fusion); host or cells: RT112; the other entry of the earlier key: TACC3 (Q9Y6A5, Transforming acidic coiled-coil-containing protein 3)
Nature of the experiment: pERK potency assay (In Cell ELISA), RT112 cells. The following applies: RT112 (FGFR3 overexpression/FGFR3-TACC3 fusion) cells, 3 hours.
Source text: as §1

T1 sequence (P21802 22-821 K310R/N549K): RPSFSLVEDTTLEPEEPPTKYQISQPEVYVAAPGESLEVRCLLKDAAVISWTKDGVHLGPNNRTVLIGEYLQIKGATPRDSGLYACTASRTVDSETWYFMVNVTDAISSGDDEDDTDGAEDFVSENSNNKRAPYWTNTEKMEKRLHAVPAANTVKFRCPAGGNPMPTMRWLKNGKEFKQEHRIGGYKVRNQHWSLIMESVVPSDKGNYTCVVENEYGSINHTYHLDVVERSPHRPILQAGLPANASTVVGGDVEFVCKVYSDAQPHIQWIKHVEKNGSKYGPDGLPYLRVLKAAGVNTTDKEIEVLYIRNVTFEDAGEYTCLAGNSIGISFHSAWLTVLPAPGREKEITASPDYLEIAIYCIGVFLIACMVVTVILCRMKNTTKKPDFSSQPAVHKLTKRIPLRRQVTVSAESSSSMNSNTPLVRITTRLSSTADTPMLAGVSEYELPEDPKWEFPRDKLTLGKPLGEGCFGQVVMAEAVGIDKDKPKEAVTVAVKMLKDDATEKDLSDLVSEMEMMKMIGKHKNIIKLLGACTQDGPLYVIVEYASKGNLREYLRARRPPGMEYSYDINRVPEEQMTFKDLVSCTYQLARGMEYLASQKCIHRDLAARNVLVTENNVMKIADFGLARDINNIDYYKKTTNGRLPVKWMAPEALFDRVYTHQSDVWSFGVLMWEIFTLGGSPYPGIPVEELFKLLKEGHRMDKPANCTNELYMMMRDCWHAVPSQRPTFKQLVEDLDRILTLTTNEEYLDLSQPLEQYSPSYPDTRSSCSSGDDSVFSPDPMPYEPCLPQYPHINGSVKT
T2 sequence (P11362 22-822): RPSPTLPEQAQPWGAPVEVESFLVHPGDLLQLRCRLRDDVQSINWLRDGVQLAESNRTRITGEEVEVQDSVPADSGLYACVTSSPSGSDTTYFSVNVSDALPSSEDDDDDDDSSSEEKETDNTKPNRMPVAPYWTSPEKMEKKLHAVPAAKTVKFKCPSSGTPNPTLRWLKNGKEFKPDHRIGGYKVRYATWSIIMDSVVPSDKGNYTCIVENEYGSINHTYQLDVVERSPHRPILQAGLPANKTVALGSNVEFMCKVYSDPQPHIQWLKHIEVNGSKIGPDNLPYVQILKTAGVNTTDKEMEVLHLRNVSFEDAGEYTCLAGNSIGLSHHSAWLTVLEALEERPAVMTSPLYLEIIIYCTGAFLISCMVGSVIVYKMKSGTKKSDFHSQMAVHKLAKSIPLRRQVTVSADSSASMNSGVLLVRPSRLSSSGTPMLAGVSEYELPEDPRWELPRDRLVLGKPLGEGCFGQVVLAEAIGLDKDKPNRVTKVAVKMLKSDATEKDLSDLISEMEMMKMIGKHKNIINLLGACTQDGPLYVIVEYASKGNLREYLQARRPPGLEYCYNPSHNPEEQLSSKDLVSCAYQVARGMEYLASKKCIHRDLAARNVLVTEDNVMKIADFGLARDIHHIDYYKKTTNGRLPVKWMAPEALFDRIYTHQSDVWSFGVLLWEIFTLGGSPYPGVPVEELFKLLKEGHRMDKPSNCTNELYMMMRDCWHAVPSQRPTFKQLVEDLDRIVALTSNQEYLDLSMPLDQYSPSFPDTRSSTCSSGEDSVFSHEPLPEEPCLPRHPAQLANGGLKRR

Broadly, the IC50 is the concentration that inhibits the measured activity by half. As to `C=CC(=O)N1CC2(CC=C(c3c(-c4ccc(Oc5ncccn5)cc4)c4c(N)ncnc4n3C)CC2)C1` [Example 1, 1-(7-(4-amino-7-methyl-5-(4-(pyrimidin-2-yloxy)phenyl)-7H-pyrrolo[2,3-d]pyrimidin-6-yl)-2-azaspiro[3.5]non-6-en-2-yl)prop-2-en-1-one], on FGFR2, the half-maximal inhibitory concentration (IC50) lay in the range of 0.001 to 0.01 µM, the “FGFR1 IC50/FGFR2 IC50” value is “I (a selectivity ratio greater than 1000 but less than or equal to 2000)” and the “FGFR3 IC50/FGFR2 IC50” value is given as “F (a selectivity ratio greater than 50 but less than or equal to 150)”. Also, the IC50 at FGFR1 was over 0.1 µM. The IC50 at FGFR3 is over 0.1 µM.
Take `C=CC(=O)N1CC2(CC(c3c(-c4ccc(Oc5ncccn5)cc4)c4c(N)ncnc4n3C)C2)C1` [Example 3, 1-(6-(4-amino-7-methyl-5-(4-(pyrimidin-2-yloxy)phenyl)-7H-pyrrolo[2,3-d]pyrimidin-6-yl)-2-azaspiro[3.3]heptan-2-yl)prop-2-en-1-one]: the half-inhibitory concentration (IC50) on FGFR2, at FGFR1 and at FGFR3 was over 0.1 µM in each case.
With `C=CC(=O)N1CCC2(CCC(c3c(-c4ccc(Oc5ncccn5)cc4)c4c(N)ncnc4n3C)CC2)CC1` [Example 6, 1-(9-(4-amino-7-methyl-5-(4-(pyrimidin-2-yloxy)phenyl)-7H-pyrrolo[2,3-d]pyrimidin-6-yl)-3-azaspiro[5.5]undecan-3-yl)prop-2-en-1-one], the IC50 at FGFR2, at FGFR1 and on FGFR3 was over 0.1 µM throughout.
On to `C=CC(=O)NC1CC2(CC=C(c3c(-c4ccc(OC)cc4)c4c(N)ncnc4n3C)CC2)C1` (stereo not drawn) [Example 7, N-(7-(4-amino-5-(4-methoxyphenyl)-7-methyl-7H-pyrrolo[2,3-d]pyrimidin-6-yl)spiro[3.5]non-6-en-2-yl)acrylamide], for which the IC50 on FGFR2 is 0.01 to 0.03 µM; on FGFR1, over 0.1 µM; at FGFR3, over 0.1 µM.
On to `C=CC(=O)NC1CC2(CC=C(c3c(-c4ccc(Oc5ncccn5)cc4)c4c(N)ncnc4n3C)CC2)C1` (stereo not drawn) [Example 9, N-(7-(4-amino-7-methyl-5-(4-(pyrimidin-2-yloxy)phenyl)-7H-pyrrolo[2,3-d]pyrimidin-6-yl)spiro[3.5]non-6-en-2-yl)acrylamide], for which the figures for the half-maximal inhibitory concentration (IC50) at FGFR2, at FGFR1 and on FGFR3 were 0.01 to 0.03 µM, over 0.1 µM and over 0.1 µM, respectively. On FGFR2, the “FGFR1 IC50/FGFR2 IC50” value is recorded as “F (a selectivity ratio greater than 50 but less than or equal to 150)”. In addition, at FGFR2 (given as numeric bound), the “FGFR3 IC50/FGFR2 IC50” value is given as under 50.
For `C=CC(=O)N1CCC2(CC=C(c3c(-c4cccnc4)c4c(N)ncnc4n3C)CC2)CC1` [Example 12, 1-(9-(4-amino-7-methyl-5-(pyridin-3-yl)-7H-pyrrolo[2,3-d]pyrimidin-6-yl)-3-azaspiro[5.5]undec-8-en-3-yl)prop-2-en-1-one], on FGFR2, the half-inhibitory concentration (IC50) is 0.01 to 0.03 µM, the “FGFR1 IC50/FGFR2 IC50” value is given as “G (a selectivity ratio greater than 150 but less than or equal to 500)” and the “FGFR3 IC50/FGFR2 IC50” value was “H (a selectivity ratio greater than 500 but less than or equal to 1000)”. The IC50 on FGFR1 is over 0.1 µM. The half-maximal inhibitory concentration (IC50) at FGFR3 was over 0.1 µM.
As to `C=CC(=O)N1CCC2(CC=C(c3c(-c4ccnn4C)c4c(N)ncnc4n3C)CC2)CC1` [Example 13, 1-(9-(4-amino-7-methyl-5-(1-methyl-1H-pyrazol-5-yl)-7H-pyrrolo[2,3-d]pyrimidin-6-yl)-3-azaspiro[5.5]undec-8-en-3-yl)prop-2-en-1-one], the concentration for half-maximal inhibition (IC50) on FGFR2, at FGFR1 and at FGFR3 was over 0.1 µM in each case.
As for `C=CC(=O)N1CCC2(CC=C(c3c(C(C)C)c4c(N)ncnc4n3C)CC2)CC1` [Example 15, 1-(9-(4-amino-5-isopropyl-7-methyl-7H-pyrrolo[2,3-d]pyrimidin-6-yl)-3-azaspiro[5.5]undec-8-en-3-yl)prop-2-en-1-one], the 50% inhibitory concentration (IC50) was 0.01 to 0.03 µM at FGFR2, over 0.1 µM at FGFR1 and over 0.1 µM at FGFR3. Further, on FGFR2, the “FGFR3 IC50/FGFR2 IC50” value is “F (a selectivity ratio greater than 50 but less than or equal to 150)”.
Regarding `C=CC(=O)N1CCC2(CC=C(c3c(-c4ccc(OCCN5CCCC5)cc4)c4c(N)ncnc4n3C)CC2)CC1` [Example 20, 1-(9-(4-amino-7-methyl-5-(4-(2-(pyrrolidin-1-yl)ethoxy)phenyl)-7H-pyrrolo[2,3-d]pyrimidin-6-yl)-3-azaspiro[5.5]undec-8-en-3-yl)prop-2-en-1-one], the IC50 on FGFR2 was 0.03 to 0.1 µM; at FGFR1, over 0.1 µM; at FGFR3, over 0.1 µM. Also, the “FGFR3 IC50/FGFR2 IC50” value on FGFR2 was “F (a selectivity ratio greater than 50 but less than or equal to 150)”.
Turning to `C=CC(=O)N1CCC2(CC=C(c3c(-c4ccc(OC5CC(C)C5)nc4)c4c(N)ncnc4n3C)CC2)CC1` (stereo not drawn) [Example 25, 1-(9-(4-amino-7-methyl-5-(6-(3-methylcyclobutoxy)pyridin-3-yl)-7H-pyrrolo[2,3-d]pyrimidin-6-yl)-3-azaspiro[5.5]undec-8-en-3-yl)prop-2-en-1-one], the values for the concentration for half-maximal inhibition (IC50) at FGFR2, on FGFR1 and at FGFR3 were 0.001 to 0.01 µM, 0.03 to 0.1 µM and over 0.1 µM, respectively. Moreover, the “FGFR3 IC50/FGFR2 IC50” value on FGFR2 was “F (a selectivity ratio greater than 50 but less than or equal to 150)”.
Consider `C=CC(=O)N1CCC2(CC=C(c3c(-c4cncc(F)c4)c4c(N)ncnc4n3C)CC2)CC1` [Example 27, 1-(9-(4-amino-5-(5-fluoropyridin-3-yl)-7-methyl-7H-pyrrolo[2,3-d]pyrimidin-6-yl)-3-azaspiro[5.5]undec-8-en-3-yl)prop-2-en-1-one], for which the concentration for half-maximal inhibition (IC50) on FGFR2 is 0.001 to 0.01 µM; at FGFR1, over 0.1 µM; on FGFR3, over 0.1 µM. Also, the “FGFR1 IC50/FGFR2 IC50” value on FGFR2 is “F (a selectivity ratio greater than 50 but less than or equal to 150)”. Besides, the “FGFR3 IC50/FGFR2 IC50” value at FGFR2 is reported as “H (a selectivity ratio greater than 500 but less than or equal to 1000)”.
For `C=CC(=O)N1CCC2(CC=C(c3c(-c4ccc(OC)nc4)c4c(N)ncnc4n3C)CC2)CC1` [Example 30, 1-(9-(4-amino-5-(6-methoxypyridin-3-yl)-7-methyl-7H-pyrrolo[2,3-d]pyrimidin-6-yl)-3-azaspiro[5.5]undec-8-en-3-yl)prop-2-en-1-one], on FGFR2, the concentration for half-maximal inhibition (IC50) was at most 0.001 µM, the “FGFR1 IC50/FGFR2 IC50” value is listed as “G (a selectivity ratio greater than 150 but less than or equal to 500)” and the “FGFR3 IC50/FGFR2 IC50” value is reported as “H (a selectivity ratio greater than 500 but less than or equal to 1000)”. The IC50 on FGFR1 was over 0.1 µM. Besides, the concentration for half-maximal inhibition (IC50) at FGFR3 was over 0.1 µM.
As for `C=CC(=O)N1CCC2(CC=C(c3c(-c4ccnnc4)c4c(N)ncnc4n3C)CC2)CC1` [Example 31, 1-(9-(4-amino-7-methyl-5-(pyridazin-4-yl)-7H-pyrrolo[2,3-d]pyrimidin-6-yl)-3-azaspiro[5.5]undec-8-en-3-yl)prop-2-en-1-one], the IC50 on FGFR2, at FGFR1 and on FGFR3 was over 0.1 µM in each case.
For the compound `C=CC(=O)N1CCC2(CC=C(c3c(-c4cncnc4)c4c(N)ncnc4n3C)CC2)CC1` [Example 32, 1-(9-(4-amino-7-methyl-5-(pyrimidin-5-yl)-7H-pyrrolo[2,3-d]pyrimidin-6-yl)-3-azaspiro[5.5]undec-8-en-3-yl)prop-2-en-1-one], at FGFR2, the concentration for half-maximal inhibition (IC50) lay in the range of 0.03 to 0.1 µM, the “FGFR1 IC50/FGFR2 IC50” value is recorded as “F (a selectivity ratio greater than 50 but less than or equal to 150)” and the “FGFR3 IC50/FGFR2 IC50” value is “G (a selectivity ratio greater than 150 but less than or equal to 500)”. For the same compound, the IC50 on FGFR1 is over 0.1 µM. Besides, the IC50 at FGFR3 is over 0.1 µM.

These data come from patent publication US20260152503A1, “SPIROBICYCLIC COMPOUNDS” (ACERAND THERAPEUTICS (HONG KONG) LIMITED, priority 2022, published 2026).
